Laboratory results as given in patent US9814739B2, “2′-ethynyl nucleoside derivatives for treatment of viral infections” (priority 2012, dated 2017).
pEC50: −log10 of the molar value. Where two headings read alike, the source gives them in different places.

Assays:
[1] = system: GT1b HCV luciferase replicon; test: HCV replicon antiviral EC50 assay; type: cell-based, Hepatitis C virus; settings: for EC50: GT1B, read-out: HCV GT1b EC50 (uM); for pEC50: read-out: HCV GT1b EC50
in vitro = settings: for CC50: HCV GT1b CC50 (uM)
[2] = system: Replicon cells, expressing the GT1b HCV luciferase replicon

Structure (SMILES)	EC50 ([1]; Hepatitis C virus, 72 h) [µM]	CC50 (in vitro) [µM]	pEC50 [1]	further results
C#C[C@@]1(O)[C@H](O)[C@@H](COP(=O)(N[C@@H](C)C(=O)OCOC(C)=O)Oc2ccccc2)O[C@H]1n1ccc(=O)[nH]c1=O (single isomer, unassigned) [1.17 (peak 2)]	9.09	> 25	–	–
C#C[C@@]1(O)[C@H](O)[C@@H](COP(=O)(NC(C)(C)C(=O)OCC)Oc2ccccc2)O[C@H]1n1ccc(=O)[nH]c1=O (single isomer, unassigned) [1.37 (peak 2)]	0.478	> 25	–	–
C#C[C@@]1(O)[C@H](O)[C@@H](COP(=O)(N[C@@H](C)C(=O)OC2CCC2)Oc2ccccc2)O[C@H]1n1ccc(=O)[nH]c1=O (single isomer, unassigned) [1.11 (peak 1)]	–	–	7.00	CC50 [2]: > 25 µM
C#C[C@@]1(O)[C@H](O)[C@@H](COP(=O)(N[C@@H](Cc2ccccc2)C(=O)OC(C)C)Oc2ccccc2)O[C@H]1n1ccc(=O)[nH]c1=O (single isomer, unassigned) [1.10 (peak 1)]	–	–	5.54	CC50 [2]: > 25 µM
C#C[C@@]1(O)[C@H](O)[C@@H](COP(=O)(N[C@@H](CC)C(=O)OC(C)C)Oc2ccccc2)O[C@H]1n1ccc(=O)[nH]c1=O (single isomer, unassigned) [1.38 (peak 2)]	0.54	> 25	–	–
C#C[C@@]1(O)[C@H](OC(C)=O)[C@@H](COP(=O)(N[C@@H](C)C(=O)OC(C)C)Oc2ccccc2)O[C@H]1n1ccc(=O)[nH]c1=O (stereo partly drawn) [Example 1.21, (2S)-isopropyl 2-(((((2R,3R,4R,5R)-3-acetoxy-5-(2,4-dioxo-3,4-dihydropyrimidin-1(2H)-yl)-4-ethynyl-4-hydroxytetrahydrofuran-2-yl)methoxy)(phenoxy)phosphoryl)amino)propanoate]	0.067	> 25	–	–
C#C[C@@]1(O)[C@H](O)[C@@H](COP(=O)(N[C@@H](Cc2ccccc2)C(=O)OC(C)C)Oc2ccccc2)O[C@H]1n1ccc(=O)[nH]c1=O (single isomer, unassigned) [1.10 (peak 2)]	–	> 25	7.64	–
C#C[C@@]1(O)[C@H](O)[C@@H](COP(=O)(N[C@@H](C)C(=O)O[C@H](C)CC)Oc2ccccc2)O[C@H]1n1ccc(=O)[nH]c1=O (single isomer, unassigned) [1.15 (peak 1)]	–	–	6.76	CC50 [2]: > 25 µM
C#C[C@@]1(O)[C@H](O)[C@@H](COP(=O)(N[C@@H](C)C(=O)OC(C)C)Oc2ccccc2)O[C@H]1n1ccc(N)nc1=O (single isomer, unassigned) [1.30 (peak 2)]	54.3	> 25	–	–
C#C[C@@]1(O)[C@H](O)[C@@H](COP(=O)(N[C@@H](C)C(=O)OC(CC)CC)Oc2ccccc2)O[C@H]1n1ccc(=O)[nH]c1=O (single isomer, unassigned) [1.16 (peak 1)]	–	–	6.47	CC50 [2]: > 25 µM
C#C[C@@]1(O)[C@H](O)[C@@H](COP(=O)(N[C@@H](C)C(=O)OCOC(C)=O)Oc2ccccc2)O[C@H]1n1ccc(=O)[nH]c1=O (single isomer, unassigned) [1.17 (peak 1)]	–	–	5.17	CC50 [2]: > 25 µM
C#C[C@@]1(O)[C@H](O)[C@@H](COP(=O)(N[C@@H](C)C(=O)OCC(C)(C)C)Oc2ccccc2)O[C@H]1n1ccc(=O)[nH]c1=O (single isomer, unassigned) [1.33 (peak 1)]	–	–	7.09	CC50 [2]: 19.7 µM
C#C[C@@]1(O)[C@H](O)[C@@H](COP(=O)(N[C@@H](C)C(=O)OC2CCC2)Oc2ccccc2)O[C@H]1n1ccc(=O)[nH]c1=O (single isomer, unassigned) [1.11 (peak 2)]	0.058	> 25	–	–
C#C[C@@]1(O)[C@H](O)[C@@H](COP(=O)(N[C@@H](C)C(=O)OC)Oc2ccccc2)O[C@H]1n1ccc(=O)[nH]c1=O (single isomer, unassigned) [1.35 (peak 2)]	0.194	> 25	–	–
C#C[C@@]1(O)[C@H](O)[C@@H](COP(=S)(N[C@@H](C)C(=O)OC(C)C)Oc2ccccc2)O[C@H]1n1ccc(=O)[nH]c1=O (stereo partly drawn) [Example 1.19, (2S)-isopropyl 2-(((((2R,3R,4R,5R)-5-(2,4-dioxo-3,4-dihydropyrimidin-1(2H)-yl)-4-ethynyl-3,4-dihydroxytetrahydrofuran-2-yl)methoxy)(phenoxy)phosphorothioyl)amino)propanoate]	0.036	–	–	CC50 at 3 days (in vitro): > 25 µM
C#C[C@@]1(O)[C@H](O)[C@@H](COP(=O)(N[C@@H](C)C(=O)OC(C)C)Oc2ccccc2)O[C@H]1n1ccc(=O)[nH]c1=O (single isomer, unassigned) [1.25 (peak 1)]	0.358	> 25	–	–
C#C[C@@]1(O)[C@H](O)[C@@H](COP(=O)(N[C@@H](C)C(=O)OC(C)C)Oc2ccccc2)O[C@H]1n1ccc(OC)nc1=O (single isomer, unassigned) [1.28 (peak 2)]	> 100	> 25	–	–

Structure (SMILES)	EC50 ([1]; Hepatitis C virus, 72 h) [µM]	CC50 (in vitro) [µM]	pEC50 [1]	further results
C#C[C@@]1(O)[C@H](O)[C@@H](COP(=O)(N[C@@H](C)C(=O)O[C@H](C)CC)Oc2ccccc2)O[C@H]1n1ccc(=O)[nH]c1=O (single isomer, unassigned) [1.15 (peak 2)]	–	> 25	7.54	–
C#C[C@@]1(O)[C@H](O)[C@@H](COP(=O)(N[C@@H](CCC)C(=O)OC(C)C)Oc2ccccc2)O[C@H]1n1ccc(=O)[nH]c1=O (single isomer, unassigned) [1.24 (peak 2)]	–	> 25	7.21	–
C#C[C@@]1(O)[C@H](O)[C@@H](COP(=O)(NC(C)(C)C(=O)OC(C)C)Oc2ccccc2)O[C@H]1n1ccc(=O)[nH]c1=O (single isomer, unassigned) [1.39 (peak 2)]	–	> 25	7.33	–
C#C[C@@]1(O)[C@H](O)[C@@H](COP(=O)(N[C@@H](C)C(=O)OCC(C)(C)OC)Oc2ccccc2)O[C@H]1n1ccc(=O)[nH]c1=O (single isomer, unassigned) [1.32 (peak 2)]	–	> 25	6.74	–
C#C[C@@]1(O)[C@H](O)[C@@H](COP(=O)(N[C@@H](C)C(=O)OC2CCOCC2)Oc2ccccc2)O[C@H]1n1ccc(=O)[nH]c1=O (single isomer, unassigned) [1.14 (peak 2)]	–	> 25	6.34	–
C#C[C@@]1(O)[C@H](O)[C@@H](COP(=O)(N[C@@H](C)C(=O)O[C@@H](C)CC)Oc2ccccc2)O[C@H]1n1ccc(=O)[nH]c1=O (single isomer, unassigned) [1.13 (peak 2)]	–	> 25	7.60	–
C#C[C@@]1(O)[C@H](O)[C@@H](COP(=O)(N[C@@H](C)C(=O)OC(CCC)CCC)Oc2ccccc2)O[C@H]1n1ccc(=O)[nH]c1=O (single isomer, unassigned) [1.34 (peak 2)]	0.151	> 25	–	–
C#C[C@]1(O)[C@H](n2ccc(=O)[nH]c2=O)O[C@@](CO[P@@](=O)(N[C@@H](C)C(=O)OC(C)C)Oc2ccccc2)(N=[N+]=[N-])[C@H]1O [Example 1.26, (2S)-isopropyl 2-(((((2R,3S,4R,5R)-2-azido-5-(2,4-dioxo-3,4-dihydropyrimidin-1(2H)-yl)-4-ethynyl-3,4-dihydroxytetrahydrofuran-2-yl)methoxy)(phenoxy)phosphoryl)amino)propanoate]	1.44	> 25	–	–
C#C[C@@]1(O)[C@H](O)[C@@H](COP(=O)(N[C@@H](C)C(=O)OCC)Oc2ccccc2)O[C@H]1n1ccc(=O)[nH]c1=O (single isomer, unassigned) [1.36 (peak 2)]	0.096	> 25	–	–
C#C[C@@]12OC(=O)O[C@@H]1[C@@H](COP(=O)(N[C@@H](C)C(=O)OC(C)C)Oc1ccccc1)O[C@H]2n1ccc(=O)[nH]c1=O (stereo partly drawn) [Example 1.22, (2S)-isopropyl 2-(((((3aR,4R,6R,6aR)-6-(2,4-dioxo-3,4-dihydropyrimidin-1(2H)-yl)-6a-ethynyl-2-oxotetrahydrofuro[3,4-d][1,3]dioxol-4-yl)methoxy)(phenoxy)phosphoryl)amino)propanoate]	0.108	> 25	–	–
C#C[C@@]1(O)[C@H](O)[C@@H](COP(=O)(O)N[C@@H](C)C(=O)O)O[C@H]1n1ccc(=O)[nH]c1=O [Example 1.40, (2S)-2-(((((2R,3R,4R,5R)-5-(2,4-dioxo-3,4-dihydropyrimidin-1(2H)-yl)-4-ethynyl-3,4-dihydroxytetrahydrofuran-2-yl)methoxy)(hydroxy)phosphoryl)amino)propanoic acid]	–	> 25	–	pEC50 ([1]; Hepatitis C virus, 72 h, GT1b replicon cells, 3 days, luciferase): 6.83
C#C[C@@]1(O)[C@H](O)[C@@H](COP(=O)(N[C@@H](CC(C)C)C(=O)OC(C)C)Oc2ccccc2)O[C@H]1n1ccc(=O)[nH]c1=O (single isomer, unassigned) [1.23 (peak 2)]	–	> 25	6.52	–
C#C[C@@]1(O)[C@H](O)[C@@H](COP(=O)(N[C@@H](C)C(=O)OC2CCCC2)Oc2ccccc2)O[C@H]1n1ccc(=O)[nH]c1=O (single isomer, unassigned) [1.31 (peak 2)]	–	> 25	8.22	–
C#C[C@@]1(O)[C@H](O)[C@@H](COP(=O)(N[C@@H](C)C(=O)OC2CCCCC2)Oc2ccccc2)O[C@H]1n1ccc(=O)[nH]c1=O (stereo partly drawn) [Example 1.12, (2S)-cyclohexyl 2-(((((2R,3R,4R,5R)-5-(2,4-dioxo-3,4-dihydropyrimidin-1(2H)-yl)-4-ethynyl-3,4-dihydroxytetrahydrofuran-2-yl)methoxy)(phenoxy)phosphoryl)amino)propanoate]	0.013	> 25	–	–
C#C[C@@]1(O)[C@H](O)[C@@H](COP(=O)(N[C@@H](C)C(=O)OCC(C)(C)C)Oc2ccccc2)O[C@H]1n1ccc(=O)[nH]c1=O (single isomer, unassigned) [1.33 (peak 2)]	–	> 25	6.00	–
C#C[C@@]1(O)[C@H](O)[C@@H](COP(=O)(N[C@@H](C)C(=O)OC(CC)CC)Oc2ccccc2)O[C@H]1n1ccc(=O)[nH]c1=O (single isomer, unassigned) [1.16 (peak 2)]	–	> 25	7.25	–
C#C[C@@]1(O)[C@H](O)[C@@H](COP(=O)(NCCOC(=O)c2ccccc2)Oc2ccccc2)O[C@H]1n1ccc(=O)[nH]c1=O (single isomer, unassigned) [1.18 (peak 2)]	0.089	> 25	–	–
